A word on the Ki: it is a dissociation constant, usually derived from enzyme kinetics or from competition with a known ligand.

The target in this assay is T1, GST-tagged-Wee1 kinase (Homo sapiens, UniProt P30291).
T1 construct: purchased Carnabio (Carna Biosciences) 05-177
T1 sequence (P30291 whole entry): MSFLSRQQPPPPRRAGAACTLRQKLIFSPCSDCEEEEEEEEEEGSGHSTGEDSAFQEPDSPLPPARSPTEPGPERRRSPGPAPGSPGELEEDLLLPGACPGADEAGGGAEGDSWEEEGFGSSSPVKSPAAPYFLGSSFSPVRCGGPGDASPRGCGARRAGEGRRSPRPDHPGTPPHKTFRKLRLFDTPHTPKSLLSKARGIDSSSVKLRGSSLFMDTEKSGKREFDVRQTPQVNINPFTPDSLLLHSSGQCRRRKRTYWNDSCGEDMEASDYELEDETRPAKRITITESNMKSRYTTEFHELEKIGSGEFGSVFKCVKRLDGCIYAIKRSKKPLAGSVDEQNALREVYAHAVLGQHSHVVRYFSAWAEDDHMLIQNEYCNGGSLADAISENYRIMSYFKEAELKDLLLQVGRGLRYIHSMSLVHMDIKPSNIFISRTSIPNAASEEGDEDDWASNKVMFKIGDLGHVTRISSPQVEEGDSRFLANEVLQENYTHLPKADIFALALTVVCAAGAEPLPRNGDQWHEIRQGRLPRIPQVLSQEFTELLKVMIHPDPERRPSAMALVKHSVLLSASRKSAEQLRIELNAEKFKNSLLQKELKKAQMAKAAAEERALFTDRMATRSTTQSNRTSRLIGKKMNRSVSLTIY
Description: Wee1 time-resolved fluorescence equilibrium binding assay (displacement of Oregon Green-labeled ATP-competitive kinase probe). The note with it: read-out: Wee-1 inhibition (Ki). In outline: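 Time-resolved fluorescence equilibrium binding with GST-Wee1, measuring displacement of a rapidly reversible Oregon Green-labelled ATP-competitive probe by competitive inhibitors; values reported as Ki.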
For `O=c1c2cnc(Nc3cc(F)c(N4CCNCC4)c(F)c3)nc2n2ccnc2n1-c1ccccc1Cl` [Example 203, 6-(2-chlorophenyl)-2-{[3,5-difluoro-4-(piperazin-1-yl)phenyl]amino}imidazo[1,2-a]pyrimido[5,4-e]pyrimidin-5(6H)-one], the Ki is under 10 nM.
Regarding `O=c1c2cnc(Nc3ccc(N4CCN5CCC[C@@H]5C4)cc3)nc2n2ccnc2n1-c1ccccc1Cl` [Example 204, 6-(2-chlorophenyl)-2-({4-[(8aR)-hexahydropyrrolo[1,2-a]pyrazin-2(1H)-yl]phenyl}amino)imidazo[1,2-a]pyrimido[5,4-e]pyrimidin-5(6H)-one], the Ki is under 10 nM.
For the compound `O=c1c2cnc(Nc3ccc4c(c3)CNCC43CC3)nc2n2ccnc2n1-c1ccc(O)cc1` [Example 205, 2-(2′,3′-dihydro-1′H-spiro[cyclopropane-1,4′-isoquinolin]-7′-ylamino)-6-(4-hydroxyphenyl)imidazo[1,2-a]pyrimido[5,4-e]pyrimidin-5(6H)-one], the inhibition constant (Ki) was under 10 nM.
For `CS(=O)(=O)N1Cc2cc(Nc3ncc4c(=O)n(-c5c(Cl)cccc5Cl)c5nccn5c4n3)ccc2C2(CC2)C1` [Example 206, 6-(2,6-dichlorophenyl)-2-{[2′-(methylsulfonyl)-2′,3′-dihydro-1′H-spiro[cyclopropane-1,4′-isoquinolin]-7′-yl]amino}imidazo[1,2-a]pyrimido[5,4-e]pyrimidin-5(6H)-one], the Ki was under 10 nM.
Regarding `CC(=O)N1Cc2cc(Nc3ncc4c(=O)n(-c5c(Cl)cccc5Cl)c5nccn5c4n3)ccc2C2(CC2)C1` [Example 207, 2-[(2′-acetyl-2′,3′-dihydro-1′H-spiro[cyclopropane-1,4′-isoquinolin]-7′-yl)amino]-6-(2,6-dichlorophenyl)imidazo[1,2-a]pyrimido[5,4-e]pyrimidin-5(6H)-one], the Ki was under 10 nM.
As for `O=c1c2cnc(Nc3ccc(N4CCN5CCCCC5C4)cc3)nc2n2ccnc2n1-c1ccccc1Cl` (stereo not drawn) [Example 208, 6-(2-chlorophenyl)-2-{[4-(octahydro-2H-pyrido[1,2-a]pyrazin-2-yl)phenyl]amino}imidazo[1,2-a]pyrimido[5,4-e]pyrimidin-5(6H)-one], the Ki was under 10 nM.
Turning to `CN1Cc2cc(Nc3ncc4c(=O)n(-c5c(F)cccc5Cl)c5nccn5c4n3)ccc2C1(C)C` [Example 209, 6-(2-chloro-6-fluorophenyl)-2-[(1,1,2-trimethyl-2,3-dihydro-1H-isoindol-5-yl)amino]imidazo[1,2-a]pyrimido[5,4-e]pyrimidin-5(6H)-one], the Ki was under 10 nM.
On to `CN1C(C)(C)c2ccc(Nc3ncc4c(=O)n(-c5c(F)cccc5Cl)c5nccn5c4n3)cc2C1(C)C` [Example 210, 6-(2-chloro-6-fluorophenyl)-2-[(1,1,2,3,3-pentamethyl-2,3-dihydro-1H-isoindol-5-yl)amino]imidazo[1,2-a]pyrimido[5,4-e]pyrimidin-5(6H)-one], for which the Ki was under 10 nM.
In the case of `O=c1c2cnc(Nc3ccc(N4CCN(C5COC5)CC4)cc3)nc2n2ccnc2n1-c1ccccc1Cl` [Example 211, 6-(2-chlorophenyl)-2-({4-[4-(oxetan-3-yl)piperazin-1-yl]phenyl}amino)imidazo[1,2-a]pyrimido[5,4-e]pyrimidin-5(6H)-one], the Ki is 10 to 100 nM.
Regarding `CN1Cc2cc(Nc3ncc4c(=O)n(-c5c(Cl)cc(F)cc5Cl)c5nccn5c4n3)ccc2C(C)(C)C1` [Example 212, 6-(2,6-dichloro-4-fluorophenyl)-2-[(2,4,4-trimethyl-1,2,3,4-tetrahydroisoquinolin-7-yl)amino]imidazo[1,2-a]pyrimido[5,4-e]pyrimidin-5(6H)-one], the Ki is under 10 nM.
On to `O=c1cn[nH]c2ccc(Nc3ncc4c(=O)n(-c5c(Cl)cccc5Cl)c5nccn5c4n3)cc12` [Example 213, 6-(2,6-dichlorophenyl)-2-[(4-oxo-1,4-dihydrocinnolin-6-yl)amino]imidazo[1,2-a]pyrimido[5,4-e]pyrimidin-5(6H)-one], for which the Ki is under 10 nM.
With `CC(=O)N1CCN(c2ccc(Nc3ncc4c(=O)n(-c5c(Cl)cccc5Cl)c5nccn5c4n3)cc2)CC1` [Example 214, 2-{[4-(4-acetylpiperazin-1-yl)phenyl]amino}-6-(2,6-dichlorophenyl)imidazo[1,2-a]pyrimido[5,4-e]pyrimidin-5(6H)-one], the Ki is under 10 nM.
In the case of `CN(C)C1CCN(c2ccc(Nc3ncc4c(=O)n(-c5c(Cl)cccc5Cl)c5nccn5c4n3)cc2)CC1` [Example 215, 6-(2,6-dichlorophenyl)-2-({4-[4-(dimethylamino)piperidin-1-yl]phenyl}amino)imidazo[1,2-a]pyrimido[5,4-e]pyrimidin-5(6H)-one], the Ki was under 10 nM.
Consider `COC(=O)c1ccc(Nc2ncc3c(=O)n(-c4c(Cl)cccc4Cl)c4nccn4c3n2)cc1` [Example 216, methyl 4-{[6-(2,6-dichlorophenyl)-5-oxo-5,6-dihydroimidazo[1,2-a]pyrimido[5,4-e]pyrimidin-2-yl]amino}benzoate], for which the Ki is under 10 nM.
Take `O=c1c2cnc(Nc3cc(Cl)c(N4CCNCC4)c(Cl)c3)nc2n2ccnc2n1-c1ccccc1Cl` [Example 217, 6-(2-chlorophenyl)-2-{[3,5-dichloro-4-(piperazin-1-yl)phenyl]amino}imidazo[1,2-a]pyrimido[5,4-e]pyrimidin-5(6H)-one]: the Ki is 10 to 100 nM.
In the case of `O=c1c2cnc(Nc3ccc(-c4cn5ccccc5n4)cc3)nc2n2ccnc2n1-c1ccccc1Cl` [Example 218, 6-(2-chlorophenyl)-2-{[4-(imidazo[1,2-a]pyridin-2-yl)phenyl]amino}imidazo[1,2-a]pyrimido[5,4-e]pyrimidin-5(6H)-one], the Ki was 10 to 100 nM.
For `CC(C)N1C(=O)CSC1c1ccc(Nc2ncc3c(=O)n(-c4ccccc4Cl)c4nccn4c3n2)cc1` (stereo not drawn) [Example 219, 6-(2-chlorophenyl)-2-({4-[4-oxo-3-(propan-2-yl)-1,3-thiazolidin-2-yl]phenyl}amino)imidazo[1,2-a]pyrimido[5,4-e]pyrimidin-5(6H)-one], the Ki was under 10 nM.
Regarding `O=c1c2cnc(Nc3ccc(-c4cn5c(n4)SCC5)cc3)nc2n2ccnc2n1-c1ccccc1Cl` [Example 220, 6-(2-chlorophenyl)-2-{[4-(2,3-dihydroimidazo[2,1-b][1,3]thiazol-6-yl)phenyl]amino}imidazo[1,2-a]pyrimido[5,4-e]pyrimidin-5(6H)-one], the Ki fell in the range of 10 to 100 nM.
Take `CC1SC(c2ccc(Nc3ncc4c(=O)n(-c5ccccc5Cl)c5nccn5c4n3)cc2)NC1=O` (stereo not drawn) [Example 221, 6-(2-chlorophenyl)-2-{[4-(5-methyl-4-oxo-1,3-thiazolidin-2-yl)phenyl]amino}imidazo[1,2-a]pyrimido[5,4-e]pyrimidin-5(6H)-one]: the Ki was in the range of 10 to 100 nM.
Regarding `O=c1c2cnc(Nc3ccc(-c4cn5ccsc5n4)cc3)nc2n2ccnc2n1-c1ccccc1Cl` [Example 222, 6-(2-chlorophenyl)-2-{[4-(imidazo[2,1-b][1,3]thiazol-6-yl)phenyl]amino}imidazo[1,2-a]pyrimido[5,4-e]pyrimidin-5(6H)-one], the Ki was 10 to 100 nM.
With `O=c1[nH][nH]c2c(-c3ccc(Nc4ncc5c(=O)n(-c6ccccc6Cl)c6nccn6c5n4)cc3)cccc12` [Example 223, 6-(2-chlorophenyl)-2-{[4-(3-oxo-2,3-dihydro-1H-indazol-7-yl)phenyl]amino}imidazo[1,2-a]pyrimido[5,4-e]pyrimidin-5(6H)-one], the Ki was under 10 nM.

(Values after patent publication US8710065B2, “Tricyclic inhibitors of kinases” (AbbVie Inc., priority 2011, dated 2014).)
